The source of these data is publication PMC7562898, “Homogeneous single-label cGMP detection platform for the functional study of nitric oxide-sensitive (soluble) guanylyl cyclases and cGMP-specific phosphodiesterases” (Scientific Reports, 2020).

Where two headings read alike, the source gives them in different places.

As usually defined, the Km is the substrate concentration at which the rate is half of its maximum. As usually defined, the IC50 is the midpoint of a concentration-inhibition curve.

Assay [1] relates to monoclonal cGMP-specific antibody. The assay can be described thus: Homogeneous competitive QRET cGMP detection with cGMP-specific antibody. Type of assay: binding. The settings on record: for recognition of the nucleotide by the antibody: nucleotide titration, data not shown. How it is done:
All biochemical assays were performed in a 10 µL final volume using triplicate reactions and three individual experiments unless otherwise indicated. The non-enzymatic and real-time cGMP assays were performed in assay buffer 1 (20 mM HEPES, pH 7.5, 1 mM MgCl2, 0.005% γ-globulins, 0.01% Triton X-100), enzymatic end-point assays in assay buffer 2 (assay buffer 1 without 0.01% Triton X-100), and detection components ([…], antibody, and MT2) were added in the stop buffer (assay buffer 1 supplemented with 10 mM EDTA instead of 1 mM MgCl2). In all buffers, sGMP was equally detected. Buffers for end-point assay were optimized to avoid the used of Triton X-100 during the enzymatic sGC reaction, avoiding the progressive loss of heme, and by using the EDTA in stop buffer to chelate the enzyme essential MgCl2.
After initial assays, cGMP detection protocol was tested in cGMP titration with two antibody (2 ng/well and 4 ng/well) and two Eu(III)-cGMP (1 nM and 5 nM) concentrations. Titrated cGMP (0–250 µM) was added in 5 µL volume and detection solution containing Eu(III)-cGMP, cGMP antibody, and MT2 (1.2 µM or 2.2 µM) in 5 µL volume. Similar titrations were performed with other nucleotides (cAMP, GTP, ATP, ADP, and GMP). cGMP was also titrated in the presence of 0.5 mM GTP. In all of these assays, background controls were performed with six repeats and TRF-signals were monitored multiple times between 5 to 90 min to determine the TRF-signal stability.
Assays were performed with Eu(III)-cGMP concentration dependent individually fixed MT2 (1.2–3.2 µM) quencher concentration. TRF-signals were measured and the Eu(III)-cGMP equilibrium dissociation constant (Kd) for the cGMP-specific antibody was determined using linearized Cheng-Prusoff Equation[59].

The target of assay [2] is T1, sGC (Homo sapiens, UniProt Q02108+Q02153).
T1 construct: Full-length sGC was purified from Sf9 cells as described previously; made in house; host or cells: Sf9 cells
T1 sequence (Q02108 1-690): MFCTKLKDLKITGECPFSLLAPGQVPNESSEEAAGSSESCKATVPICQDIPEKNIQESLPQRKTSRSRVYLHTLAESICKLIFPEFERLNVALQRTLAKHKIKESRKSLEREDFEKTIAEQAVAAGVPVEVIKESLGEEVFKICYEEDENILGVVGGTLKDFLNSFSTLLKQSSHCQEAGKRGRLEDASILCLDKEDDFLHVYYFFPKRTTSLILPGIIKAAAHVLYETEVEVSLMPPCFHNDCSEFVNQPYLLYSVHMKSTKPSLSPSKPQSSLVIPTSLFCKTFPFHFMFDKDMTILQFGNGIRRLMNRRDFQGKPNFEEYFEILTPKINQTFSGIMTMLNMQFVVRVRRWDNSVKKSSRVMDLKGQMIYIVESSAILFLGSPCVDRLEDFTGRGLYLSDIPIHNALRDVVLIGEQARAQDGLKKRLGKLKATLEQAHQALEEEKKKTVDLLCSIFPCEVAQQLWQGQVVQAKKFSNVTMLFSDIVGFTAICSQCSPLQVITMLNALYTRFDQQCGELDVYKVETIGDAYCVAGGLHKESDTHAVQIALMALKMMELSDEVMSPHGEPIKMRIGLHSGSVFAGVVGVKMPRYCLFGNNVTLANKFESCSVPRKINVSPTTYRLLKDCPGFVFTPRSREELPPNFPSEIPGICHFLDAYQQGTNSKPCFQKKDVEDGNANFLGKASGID
T1 sequence (Q02153 1-619): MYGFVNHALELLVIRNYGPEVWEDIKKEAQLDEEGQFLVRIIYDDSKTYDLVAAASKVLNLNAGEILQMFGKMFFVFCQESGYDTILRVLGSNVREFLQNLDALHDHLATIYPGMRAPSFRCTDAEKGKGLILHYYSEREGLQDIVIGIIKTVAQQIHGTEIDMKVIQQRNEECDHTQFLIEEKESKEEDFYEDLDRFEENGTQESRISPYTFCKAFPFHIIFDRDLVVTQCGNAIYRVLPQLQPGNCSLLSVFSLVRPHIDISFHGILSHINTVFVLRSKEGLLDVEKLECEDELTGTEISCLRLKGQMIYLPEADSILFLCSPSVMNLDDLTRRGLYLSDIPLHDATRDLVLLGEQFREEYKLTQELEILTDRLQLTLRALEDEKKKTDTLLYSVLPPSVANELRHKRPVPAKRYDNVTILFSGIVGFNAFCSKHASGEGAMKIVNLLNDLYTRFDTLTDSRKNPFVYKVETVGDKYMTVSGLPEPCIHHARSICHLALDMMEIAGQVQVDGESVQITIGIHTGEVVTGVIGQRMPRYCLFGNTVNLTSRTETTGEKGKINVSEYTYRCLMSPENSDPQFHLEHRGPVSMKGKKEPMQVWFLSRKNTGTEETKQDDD
The assay can be described thus: sGC activity assay, endpoint QRET cGMP detection. Type of assay: biochemical. The settings on record: for EC50: 2 ng sGC, 0.5 mM GTP, 30 min at 37 °C, read-out: EC50 of concentration dependent sGC activation; for effect on sGC activity at fixed saturating concentration: 10 µM NS2028, 10 µM DEA-NO; for fold increase for cGMP compared to untreated sGC: 100 µM gemfibrozil or 10 µM DEA-NO. As to the method:
Optimized cGMP detection platform was applied to all enzymatic assays. For non-stimulated conditions, purified sGC enzyme (0.04–276 ng/well) was incubated with or without 0.5 mM GTP in the assay buffer 2 for 10 to 45 min at 37 °C in 5 µL volume. The reaction was stopped by adding 5 µL of detection solution (0.4 µg/ml cGMP antibody, 5 nM Eu(III)-cGMP, and 2.2 µM MT2) containing EDTA. For NO stimulated sGC activity, the same reactions were performed in the presence of 10 or 100 µM DEA-NO added with GTP. DEA-NO was always prepared from a 100 mM stock solution in 10 mM NaOH, which was stored at − 80 °C. TRF-signals were always monitored multiple times between 5 to 90 min to determine the TRF-signal stability.
In assays where dose-dependent effect of three sGC activators, DEA-NO, YC-1, and riociguat, were tested, the compounds (0–100 µM) were incubated with 2 ng sGC. Reactions were initiated by adding 0.5 mM GTP to reach 5 µL volume and incubated for 30 min at 37 °C. Reactions were stopped by adding 5 µL of detection solution and TRF-signals were recorded. To evaluate the linearity of the cGMP production by sGC, 3 or 12 ng of sGC were used for resting conditions and 0.5 ng for 100 µM DEA-NO activated sGC. Assays were performed in separate plates and reactions were stopped at indicated time points (5–60 min), before TRF-signal monitoring as above.
For assays containing fixed concentration of sGC regulators, 5 ng of sGC was incubated with one, or the indicated combination of following molecules: 10 µM NS2028, 100 nM BAY58-2667, 100 µM gemfibrozil, 10 µM BAY41-2272, 100 µM Cbi, 10 µM DEA-NO or SNP with glutathione (100 µM each). 5 µL reactions containing 0.5 mM GTP were incubated for 10 min at 37 °C and stopped by adding the detection components. TRF-signals were recorded as described above.
Cell lysate interferences were evaluated in an endpoint assay with different amounts of sGC (0.008–166.7 ng) and 0.07 or 0.14 mg/ml of COS7 cell lysate. sGC/lysate mixture was supplemented with 0.5 mM GTP in the presence or absence of 10 µM DEA-NO, and 5 µL reaction was incubated for 10 min at 37 °C. Detection components were thereafter added and TRF-signals were monitored as above.
Reproducibility and HTS compatibility were determined by running Z’-factor assay using 24 sGC reactions with or without activity modulation in three consecutive days. Assays were performed with fixed sGC concentration (5 ng/well) and sGC activation was performed using gemfibrozil (100 µM) or DEA NONOate (10 µM). All assays were initiated by the addition of 0.5 mM GTP to obtain a final 5 µL reaction volume, 37 °C for 10 min. Detection solution was added and TRF-signals were monitored as previously. Z’-factors were calculated using sGC basal activity as negative and activated reactions (NO or gemfibrozil) as positive controls.
In parallel to all assays, changes in TRF-signal in response to different concentrations of exogenously added cGMP were recorded to generate a cGMP standard curve. The cGMP standard was created using 1:3 dilution series to maximize the linear part of the standard, which was used to calculate the amount of cGMP generated by sGC during the reaction. Only at the linear area, the TRF-signal relation to cGMP concentration can be determined.

In assay [3] the target is T1, sGC. The arrangement: method as in PMID 26777256. The settings on record: cited from earlier work.
A further assay has as its system PDE5A. The arrangement: method as in PMID 10574925. The settings on record: read-out: Km of PDE5A for cGMP; cited from earlier work.
The subject of assay [4] is PDEs in mouse brain homogenate. The assay can be described thus: cGMP hydrolysis (PDE activity) in mouse brain homogenate. Type of assay: biochemical. The note with it: 0.1 mg/ml homogenate, 50 µM cGMP, 15 min at 37 °C, 3 µM MT2; read-out: apparent IC50 of cGMP hydrolysis in mouse brain homogenate. How it is done: PDE inhibitors with varying specificity profile, BAY73-6691, sildenafil, and IBMX (0–500 µM), were assayed in a high-speed supernatants of mouse brain homogenates. Reactions were performed in 5 µL volume in the presence of 0.1 mg/ml of homogenate and 50 µM cGMP. After 15 min incubation at 37 °C, detection solution (0.4 µg/ml cGMP antibody, 5 nM Eu(III)-cGMP, and 3.0 µM MT2) was added and TRF-signals were recorded.

On to `Nc1ncnc2c1ncn2[C@@H]1O[C@H](COP(=O)(O)OP(=O)(O)O)[C@@H](O)[C@H]1O` [ADP], for which the “recognition of the nucleotide by the antibody” value (“recognition of the nucleotide” below) in assay [1] is “could not be recognized by the antibody”.

Consider `COC(=O)N(C)c1c(N)nc(-c2nn(Cc3ccccc3F)c3ncccc23)nc1N` [riociguat], for which the EC50 at sGC [2] is 0.26 ± 0.1 µM.

As for `Nc1nc2c(ncn2[C@@H]2O[C@H](COP(=O)(O)OP(=O)(O)OP(=O)(O)O)[C@@H](O)[C@H]2O)c(=O)[nH]1` [GTP, guanosine triphosphate], the Km at sGC [3] (NO-activated sGC, read-out: Km for GTP, NO-activated sGC) is less than 75 µM; at sGC [3] (resting sGC, read-out: Km for GTP, resting sGC), approximately 220 µM. Besides, the “specificity of the antibody for cGMP over the nucleotide” value in assay [1] stood at 1000 fold.

On to `Nc1ncnc2c1ncn2[C@@H]1O[C@H](COP(=O)(O)OP(=O)(O)OP(=O)(O)O)[C@@H](O)[C@H]1O` [ATP], for which, in assay [1], the “recognition of the nucleotide” value is “could not be recognized by the antibody”.

Regarding `CCN(CC)/[N+]([O-])=N/O.CCNCC` [DEA-NO, diethylamine NONOate], the EC50 at sGC [2] stood at 0.93 ± 0.1 µM. The “effect on sGC activity at fixed saturating concentration” value at sGC [2] (5 ng sGC, 10 min at 37 °C) is “largest increase in sGC activity”. On sGC [2] (10 µM DEA-NO, 5 ng sGC/well, 10 min at 37 °C, 0.14 mg/ml COS7 lysate), the “NO-stimulated sGC specific activity in the presence of COS7 lysate” value was determined as 19.3 ± 4.2 µmol/mg/min. Besides, the “NO-stimulated sGC specific activity” value on sGC [2] (10 µM DEA-NO, 5 ng sGC/well, 10 min at 37 °C, buffer) worked out at 4.8 ± 1.0 µmol/min/mg. Besides, the “fold increase for cGMP compared to untreated sGC” value at sGC [2] (5 ng sGC/well, 10 min at 37 °C) is on record as approximately 50 fold.

In the case of `Nc1nc2c(ncn2[C@@H]2O[C@@H]3COP(=O)(O)O[C@H]3[C@H]2O)c(=O)[nH]1` [cGMP, Cyclic 3´,5´-guanosine monophosphate], the Michaelis-Menten constant (Km) in the assay on PDE5A was approximately 2 µM. Further, the EC50 in assay [1] (1 nM Eu(III)-cGMP and 2 ng of antibody/well, read-out: EC50 value of cGMP titration (displacement of Eu(III)-cGMP from antibody)) was 0.72 ± 0.07 µM; in assay [1] (5 nM Eu(III)-cGMP and 4 ng of antibody/well, read-out: EC50 of cGMP titration (displacement of Eu(III)-cGMP from antibody)), 1.8 ± 0.22 µM.

Turning to `CCCc1nn(C)c2c(=O)[nH]c(-c3cc(S(=O)(=O)N4CCN(C)CC4)ccc3OCC)nc12` [sildenafil], the IC50 in assay [4] amounted to 45.2 ± 6.8 µM.

In the case of `O=c1onc2n1-c1cc(Br)ccc1OC2` [NS2028, 8-bromo-4H-2,5-dioxa-3,9b-diaza-cyclopenta[a]naphthalen-1-one], the “effect on sGC activity at fixed saturating concentration” value on sGC [2] (5 ng sGC, 10 min at 37 °C) was “no significant effect”. Also, the “effect on sGC activation when assayed together with BAY58-2667 or gemfibrozil” value on sGC [2] (10 µM NS2028 with 100 nM BAY58-2667 or 100 µM gemfibrozil, 5 ng sGC, 10 min at 37 °C) is listed as “increased the activation”.

On to `CC(C)Cn1c(=O)n(C)c(=O)c2[nH]cnc21` [IBMX, 3-isobutyl-1-methylxanthine], for which the IC50 in assay [4] amounted to 9.9 ± 0.6 µM.

For the compound `Cc1ccc(C)c(OCCCC(C)(C)C(=O)O)c1` [gemfibrozil], the “fold increase for cGMP compared to untreated sGC” value at sGC [2] (5 ng sGC/well, 10 min at 37 °C) is “approximately 20 fold”.

With `Nc1ncnc2c1ncn2[C@@H]1O[C@@H]2COP(=O)(O)O[C@H]2[C@H]1O` [cAMP, cyclic adenosine monophosphate], in assay [1], the “recognition of the nucleotide” value was “could not be recognized by the antibody”.

With `C[C@H](Cc1nc2c(cnn2-c2ccccc2Cl)c(=O)[nH]1)C(F)(F)F` [BAY73-6691], the IC50 in assay [4] was 81.3 ± 4.8 µM.

Take `OCc1ccc(-c2nn(Cc3ccccc3)c3ccccc23)o1` [YC-1, 3-(5′-hydroxymethyl-2′-furyl)-1-benzyl indazole]: the EC50 at sGC [2] is 5.7 ± 1 µM.
